Measurements reported in patent US20170172945A1, “METHODS OF TREATING BREAST CANCER” (Mitchell Woods Pharmaceuticals, Inc., priority 2014, published 2017).

Tests used:
Assay type in all cases: cell-based, Human
[1] = system: MCF-7 cells; assay: [3H]-thymidine incorporation assay in MCF-7 cells; settings: serum-starved, 24 hours
Experimental: (§1) Cells were seeded in 12-well plates at approximately 50,000 cells/well and incubated at 37° C. After 24 hours, the wells were rinsed with PBS and replaced with serum-free medium containing the appropriate concentration of the test compounds. After another 24-hour incubation at 37° C., 1 μCi of [^3H]-thymidine was added to each well and incubated at 37° C. for 16 hours. […] The lysate was then mixed with 3 mL of liquid scintillation cocktail (Beckman Coulter, Inc., Brea, Calif.), and radioactivity was measured by liquid scintillation counting using Beckman Coulter LS6000IC Scintillation Counter. Data are shown as CPM incorporated compared to the control cells.
(§2) CF-7 cells and MDA-MB-231 cells were seeded out on E-Plates and allowed to settle. Cells were stimulated with MNF. Cellular proliferation and adherence was measured every 15 minutes using xCELLigence RTCA station. The serum-starved cells were incubated with various amounts of (R,R′)-MNF concentrations for 24 hours and the levels of [3H]thymidine incorporation were measured.

[2] = system: MDA-MB-231 cells; assay: [3H]-thymidine incorporation assay in MDA-MB-231 cells; settings: serum-starved, 24 hours
Experimental: as §1, §2

[3] = system: ERK; assay: basal phosphorylation levels of ERK in MCF-7 cells; settings: serum starved for 3 hours, compound for 15 minutes
Experimental: (§3) Levels of ERK1/2 and its phosphorylated forms were determined using PathScan ELISA kits according to manufacturer's protocol (Perkin Elmer Alphascreen Surefire ERK1/2 assay kit, cat no. TGRES500).
(§4) (R,R′)-MNF decreased basal phosphorylation levels of ERK. MCF-7 and MDA-MB-231 cells were serum starved for 3 hours and subjected to compound of interest or vehicle for 15 minutes. The levels of phosphorylated ERK were determined in MNF-treated MCF-7 and MDA-MB-231 cells.

[4] = system: ERK; assay: basal phosphorylation levels of ERK in MDA-MB-231 cells; settings: serum starved for 3 hours, compound for 15 minutes
Experimental: as §3, §4

[5] = system: MCF-7 cells; assay: cell cycle analysis in MCF-7 cells
Experimental: (§5) Cell cycle distributions were performed by flow cytometry on propidium iodide-stained nuclei prepared by the NEVI technique. DNA histograms of at least 10,000 cells acquired on a Becton-Dickinson FACScanto II (BD Biosciences, San Jose, Calif.) were deconvoluted using the Multicycle program (Phoenix Flow Systems) for estimates of the percentage of cells in the G0/1, S, and G2+M phases of the cell cycle. Debris and doublets were removed from the analysis by software algorithms.

[6] = system: MDA-MB-231 cells; assay: cell cycle analysis in MDA-MB-231 cells
Experimental: as §5

[7] = system: Cyclin D1; assay: expression of Cyclin D1 in MDA-MB-231 cells
Experimental: (§6) Cells were lysed with RIPA buffer containing EGTA and EDTA (Boston BioProducts, Ashland, Mass.). The lysis buffer was mixed with a protease inhibitor cocktail (Sigma-Aldrich). Protein concentrations were measured using the bicinchoninic acid reagent (Thermo-Pierce Biotechnology, Inc., Rockford, Ill.). Proteins (20 μg/well) were separated on 4-12% precast gels (Invitrogen, Carlsbad, Calif.) using SDS-polyacrylamide gel electrophoresis under reducing conditions and were electrophoretically transferred onto polyvinylidene fluoride membrane (Invitrogen). Western blots were performed according to standard methods. The visualization of immunoreactive bands was performed using the ECL Plus Western Blotting Detection System (GE Healthcare, NJ) and their quantification was done by volume densitometry using Image J software and normalization to β-actin. The primary antibody for β2-APv was obtained from Enzo Life Sciences, Inc. (Cat. # AD 1-905-742-100, Farmingdale, N.Y.); rabbit anti-phospho-Akt (Ser-473), phospho-ERK1/2, total Akt and total ERK2 were from Cell Signaling Technology (Beverly, Mass.), and anti-P-actin was from Abeam (Cambridge, Mass.). The antibodies were used at a dilution recommended by the manufacturer.
(§7) The effect of MNF on expression of the cell cycle regulatory proteins Cyclin D1 and Cyclin B1 in MCF-7 cells and MDA-MB-231 cells was evaluated. […]

[8] = system: Cyclin D1; assay: expression of Cyclin D1 in MCF-7 cells
Experimental: as §6, §7

[9] = system: Cyclin B1; assay: expression of Cyclin B1 in MCF-7 cells
Experimental: as §6, §7

[10] = system: Multidrug resistance protein (Mdr); assay: expression of Multidrug resistance protein (Mdr) in MCF-7 cells
Description: As shown therein, MNF reduces the expression of Multidrug resistance protein (Mdr) in MCF-7 cells.

[11] = system: MCF-7 cells; assay: proliferation of MCF-7 cells (xCELLigence RTCA)
Experimental: (§8) CF-7 cells and MDA-MB-231 cells were seeded out on E-Plates and allowed to settle. Cells were stimulated with MNF. Cellular proliferation and adherence was measured every 15 minutes using xCELLigence RTCA station. The serum-starved cells were incubated with various amounts of (R,R′)-MNF concentrations for 24 hours and the levels of [3H]thymidine incorporation were measured. MNF inhibited the incorporation of radiolabelled thymidine in both CF-7 cells and MDA-MB-231 cells.

[12] = system: MDA-MB-231 cells; assay: proliferation of MDA-MB-231 cells (xCELLigence RTCA)
Experimental: as §8

SMILES	blocking of the inhibitory effect of MNF on [3H]thymidine incorporation ([1]; with MNF)	blocking of the inhibitory effect of MNF on [3H]thymidine incorporation ([2]; with MNF)	basal phosphorylation levels of ERK [3]	basal phosphorylation levels of ERK [4]	arrest of the cell cycle [5]	arrest of the cell cycle [6]	expression of Cyclin D1 [7]	expression of Cyclin D1 [8]	expression of Cyclin B1 [9]	expression of Multidrug resistance protein (Mdr) [10]	growth of cancer cells [11]	proliferation [11]	growth of cancer cells ([12]; MDA-MB-231 cells)	proliferation ([12]; MDA-MB-231 cells)	sensitivity to MNF compared with MCF-7 cancer cells ([12]; MDA-MB-231 cells vs MCF-7 cells)	levels of [3H]thymidine incorporation [1]	levels of [3H]thymidine incorporation [2]
Cc1ccc(OCC(O)C(C)NC(C)C)c2c1CCC2 (centres unmarked) [ICI 118,551, 3-(isopropylamino)-1-[(7-methyl-4-indanyl)oxy]butan-2-ol, reference compound]	not	not															
COc1ccc(C[C@@H](C)NC[C@H](O)c2cc(O)cc(O)c2)c2ccccc12 [MNF, (R,R′)-4′-methoxy-1-naphthylfenoterol]			decreased	decreased	G2/M phase arrested cell population was increased	arrested at G1/S phase	reduced	unchanged	reduced	reduces	inhibit	inhibit	inhibit	inhibit	significantly more sensitive	inhibited	inhibited
